Each molecule was assayed on PDE4 (assay: PDE4 Assay Procedure ([3H]-cAMP SPA)). Conditions: 15 nM [3H]-cAMP, SPA beads, 1 hour at room temperature; compounds tested from 10 μM to 10 pM.
Type: biochemical
Experimental: Compounds to be tested were resuspended in DMSO at a stock concentration of 1 mM. The compounds were tested at different concentrations varying from 10 μM to 10 pM to calculate an IC50. These dilutions were done in 96-well plates. In some cases, plates containing diluted compounds were frozen before being assayed. In these cases, the plates were thawed at room temperature and stirred for 15 minutes.
Ten microliters of the diluted compounds were poured into a “low binding” assay plate. Eighty microliters of reaction mixture containing 50 mM Tris pH 7.5, 8.3 mM MgCl2, 1.7 mM EGTA, and 15 nM [3H]-cAMP were added to each well. The reaction was initiated by adding ten microliters of a solution containing PDE4. The plate was then incubated under stirring for 1 hour at room temperature. After incubation the reaction was stopped with 50 microliters of SPA beads, and the reaction was allowed to incubate for another 20 minutes at room temperatures before measuring radioactivity using standard instrumentation.
The reaction mixture was prepared by adding 90 ml of H2O to 10 ml of 10× assay buffer (500 mM Tris pH 7.5, 83 mM MgCl2, 17 mM EGTA), and 40 microliters 1 μCi/μL [3H]-cAMP. SPA beads solution was prepared by adding 500 mg to […] H2O for a final concentration of 20 mg/ml beads and 18 mM zinc sulphate.

In order of falling IC50:
1. CCn1nc(-c2ccc(F)cc2)c(C(C)=O)c(Nc2ccc(CO)cc2)c1=O [Example 181, 5-Acetyl-2-ethyl-6-(4-fluorophenyl)-4-{[4-(hydroxymethyl)phenyl]amino}pyridazin-3(2H)-one]  25 nM
2. CCn1nc(-c2ccc([S+](C)[O-])cc2)c(C(C)=O)c(Nc2ccccc2C)c1=O (centres unmarked) [Example 31, 5-Acetyl-2-ethyl-4-[(2-methylphenyl)amino]-6-[4-(methylsulphinyl)phenyl]pyridazin-3(2H)-one]  20 nM
3. CCn1nc(-c2ccccc2)c(C(C)=O)c(Nc2ccc(C#N)cc2)c1=O [Example 231, 4-[(5-Acetyl-2-ethyl-3-oxo-6-phenyl-2,3-dihydropyridazin-4-yl)amino]benzonitrile]  20 nM
4. CCn1nc(-c2cccc(F)c2)c(C(C)=O)c(Nc2ccc(CO)cc2)c1=O [Example 176, 5-Acetyl-2-ethyl-6-(3-fluorophenyl)-4-{[4-(hydroxymethyl)phenyl]amino}pyridazin-3(2H)-one]  19 nM
5. CC(=O)c1c(-c2ccccc2)nn(C)c(=O)c1Nc1cc(F)cc(F)c1 [Example 39, 5-Acetyl-4-[(3,5-difluorophenyl)amino]-2-methyl-6-phenylpyridazin-3(2H)-one]  16 nM
6. CCn1nc(-c2ccccc2)c(C(C)=O)c(Nc2c(F)cc(F)cc2F)c1=O [Example 263, 5-Acetyl-2-ethyl-6-phenyl-4-[(2,4,6-trifluorophenyl)amino]pyridazin-3(2H)-one]  15 nM
7. CCn1nc(-c2ccccc2)c(C(C)=O)c(Nc2ccc(C(=O)O)cc2)c1=O [Example 50, 4-[(5-Acetyl-2-ethyl-3-oxo-6-phenyl-2,3-dihydropyridazin-4-yl)amino]benzoic acid]  14 nM
8. CCn1nc(-c2cccc(Cl)c2)c(C(C)=O)c(Nc2ccc(C(=O)O)cc2)c1=O [Example 86, 4-[5-Acetyl-6-(3-chlorophenyl)-2-ethyl-3-oxo-2,3-dihydropyridazin-4-ylamino]benzoic acid]  14 nM
9. CCn1nc(-c2ccccc2)c(C(C)=O)c(Nc2cccc(C(N)=O)c2)c1=O [Example 232, 3-[(5-Acetyl-2-ethyl-3-oxo-6-phenyl-2,3-dihydropyridazin-4-yl)amino]benzamide]  13 nM
10. CCn1nc(-c2ccccc2)c(C(C)=O)c(Nc2cccc(Cl)c2)c1=O [Example 52, 5-Acetyl-4-[(3-chlorophenyl)amino]-2-ethyl-6-phenylpyridazin-3(2H)-one]  12 nM
11. CCn1nc(-c2ccccc2)c(C(C)=O)c(Nc2cc(F)c(F)c(F)c2)c1=O [Example 264, 5-Acetyl-2-ethyl-6-phenyl-4-[(3,4,5-trifluorophenyl)amino]pyridazin-3(2H)-one]  11 nM
12. CCn1nc(-c2ccc(SC)cc2)c(C(C)=O)c(Nc2ccc(C(=O)O)cc2)c1=O [Example 23, 4-({5-Acetyl-2-ethyl-6-[4-(methylthio)phenyl]-3-oxo-2,3-dihydropyridazin-4-yl}amino)benzoic acid]  9.5 nM
13. CCn1nc(-c2ccccc2)c(C(C)=O)c(Nc2ccccc2Cl)c1=O [Example 13, 5-Acetyl-4-[(2-chlorophenyl)amino]-2-ethyl-6-phenylpyridazin-3(2H)-one]  9.3 nM
14. CCn1nc(-c2ccccc2)c(C(C)=O)c(Nc2ccc(F)c(Cl)c2)c1=O [Example 190, 5-Acetyl-4-[(3-chloro-4-fluorophenyl)amino]-2-ethyl-6-phenylpyridazin-3(2H)-one]  9.3 nM
15. CC(=O)c1c(-c2ccccc2)nn(CC2CC2)c(=O)c1Nc1cccc(Cl)c1 [Example 46, 5-Acetyl-4-[(3-chlorophenyl)amino]-2-(cyclopropylmethyl)-6-phenylpyridazin-3(2H)-one]  8.9 nM
16. CCn1nc(-c2cccc(F)c2)c(C(C)=O)c(Nc2cccc(Cl)c2)c1=O [Example 92, 5-Acetyl-4-[(3-chlorophenyl)amino]-2-ethyl-6-(3-fluorophenyl)pyridazin-3(2H)-one]  8.7 nM
17. CC(=O)c1c(-c2ccccc2)nn(CC2CC2)c(=O)c1Nc1cccc(F)c1 [Example 45, 5-Acetyl-2-(cyclopropylmethyl)-4-[(3-fluorophenyl)amino]-6-phenylpyridazin-3(2H)-one]  7.8 nM
18. CCn1nc(-c2ccccc2)c(C(C)=O)c(Nc2cccc(F)c2)c1=O [Example 1, 5-Acetyl-2-ethyl-4-[(3-fluorophenyl)amino]-6-phenylpyridazin-3(2H)-one]  7.7 nM
19. CCn1nc(-c2ccccc2)c(C(=O)CCc2ccccc2)c(Nc2cccc(Cl)c2)c1=O [Example 120, 4-[(3-Chlorophenyl)amino]-2-ethyl-6-phenyl-5-(3-phenylpropanoyl)pyridazin-3(2H)-one]  7.1 nM
20. CCn1nc(-c2cccc(Cl)c2)c(C(C)=O)c(Nc2cccc(F)c2)c1=O [Example 88, 5-Acetyl-6-(3-chlorophenyl)-2-ethyl-4-[(3-fluorophenyl)amino]pyridazin-3(2H)-one]  6.1 nM
21. CCn1nc(-c2ccccc2)c(C(C)=O)c(Nc2cccc(C#N)c2)c1=O [Example 72, 3-[(5-Acetyl-2-ethyl-3-oxo-6-phenyl-2,3-dihydropyridazin-4-yl)amino]benzonitrile]  6 nM
22. CCn1nc(-c2cccc(F)c2)c(C(C)=O)c(Nc2cccc(F)c2)c1=O [Example 91, 5-Acetyl-2-ethyl-4-[(3-fluorophenyl)amino]-6-(3-fluorophenyl)pyridazin-3(2H)-one]  5.9 nM
23. CCn1nc(-c2ccccc2)c(C(=O)OCc2ccccc2)c(Nc2cccc(Cl)c2)c1=O [Example 274, Benzyl 5-[(3-chlorophenyl)amino]-1-ethyl-6-oxo-3-phenyl-1,6-dihydropyridazine-4-carboxylate]  5.5 nM
24. CCn1nc(-c2ccccc2)c(C(C)=O)c(Nc2cccc3ccccc23)c1=O [Example 8, 5-Acetyl-2-ethyl-4-(1-naphthylamino)-6-phenylpyridazin-3(2H)-one]  2 nM
25. CCn1nc(-c2cccc([N+](=O)[O-])c2)c(C(C)=O)c(Nc2cccc3ccccc23)c1=O [Example 97, 5-Acetyl-2-ethyl-4-(naphthalen-1-ylamino)-6-(3-nitrophenyl)pyridazin-3(2H)-one]  0.5 nM
26. CC(=O)c1c(-c2ccccc2)nn(CC2CC2)c(=O)c1Nc1cc(F)cc(F)c1 [Example 109, 5-Acetyl-2-cyclopropylmethyl-4-(3,5-difluoro-phenylamino)-6-phenyl-2H-pyridazin-3-one]  0.26 nM

Reference: patent publication US7459453B2, “Pyridazin-3(2H)-one derivatives as PDE4 inhibitors” (Laboratorios Almirall, S.A., priority 2002, dated 2008)
